Measured values: patent US8344118B2, “Preparation and isolation of 5′ capped MRNA” (Applied Biosystems, LLC, priority 2007, dated 2013)

Assays:
T7 RNA polymerase = T7 RNA polymerase (Escherichia phage T7, UniProt P00573); conditions: linearized pTri β actin vector template, 37° C. for 2 hr, 20% dPAGE gel, FIG. 9
Method: A Gel Shift assay was performed by using the MAXIscript™ kit (Ambion, Inc.) following the manufacturer's protocol. The assay determines if the modified cap analogs were substrates for T7 RNA polymerase. Typical 20 μL of T7 RNA polymerase transcriptions contained the following reagents at the final concentrations indicated: linearized pTri β actin vector template, 0.5 μg; ATP, 2 mmol; GTP, 0.4 mmol; 1.6 mmol each CTP and UTP, in a separate reaction; 10× reaction buffer, 4×; T7 RNA polymerase, 50 units/μL; (α-^32P) ATP, 800 (Ci/mmol); and DEPC water. The control reaction was a normal in vitro transcription reaction, in which no cap analog was added. The transcription reactions were incubated at 37° C. for 2 hr, after which the reaction mixtures were then applied to a 20% dPAGE gel. The assay detects specific structure or size changes described as gel shifts. When structure change or size change occurs it creates complexes that migrate slower during gel electrophoresis than the original complex.

[1] = system: phage RNA polymerase such as T7, T3 or SP6; conditions: m^7GpppG to GTP (4:1); cited from earlier work

Sequence of T7 RNA polymerase (P00573 whole entry): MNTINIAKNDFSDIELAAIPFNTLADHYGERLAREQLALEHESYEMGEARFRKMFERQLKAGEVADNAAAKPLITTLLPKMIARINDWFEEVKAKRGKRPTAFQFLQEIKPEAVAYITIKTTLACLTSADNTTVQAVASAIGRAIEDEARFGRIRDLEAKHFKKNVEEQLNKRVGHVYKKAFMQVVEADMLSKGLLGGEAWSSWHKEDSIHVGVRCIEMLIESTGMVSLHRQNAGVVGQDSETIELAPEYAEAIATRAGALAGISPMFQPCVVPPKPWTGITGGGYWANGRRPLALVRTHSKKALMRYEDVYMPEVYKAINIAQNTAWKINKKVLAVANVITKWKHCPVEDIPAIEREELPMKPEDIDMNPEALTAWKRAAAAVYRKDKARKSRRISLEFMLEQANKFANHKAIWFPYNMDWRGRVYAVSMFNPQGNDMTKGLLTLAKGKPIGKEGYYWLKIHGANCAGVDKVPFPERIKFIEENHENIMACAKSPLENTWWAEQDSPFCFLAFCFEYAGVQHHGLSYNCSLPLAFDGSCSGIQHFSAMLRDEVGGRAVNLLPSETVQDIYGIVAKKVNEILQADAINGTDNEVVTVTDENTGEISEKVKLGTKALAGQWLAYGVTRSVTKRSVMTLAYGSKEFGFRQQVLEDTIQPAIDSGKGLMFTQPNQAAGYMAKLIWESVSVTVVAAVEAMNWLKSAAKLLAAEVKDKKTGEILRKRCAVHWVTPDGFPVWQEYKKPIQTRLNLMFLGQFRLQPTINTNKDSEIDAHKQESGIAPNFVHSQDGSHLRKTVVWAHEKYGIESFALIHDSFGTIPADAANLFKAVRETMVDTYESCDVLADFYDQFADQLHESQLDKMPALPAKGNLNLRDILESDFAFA

Compound: NCC=Cc1cn(C2OC(COP(=O)(O)OP(=O)(O)OP(=O)(O)OP(=O)(O)OCC3OC(n4cnc5c(=O)[nH]c(N)nc54)C(O)C3O)C(O)C2O)c(=O)[nH]c1=O (centres unmarked) [Compound 1, G[5′]pppp[5′]U-Aminoallyl]
- capped RNA (T7 RNA polymerase): about 65%

Compound: Cn1c[n+]([C@@H]2O[C@H](COP(=O)(O)OP(=O)(O)OP(=O)(O)OC[C@H]3O[C@@H](n4cnc5c(=O)[nH]c(N)nc54)[C@H](O)[C@@H]3O)[C@@H](O)[C@H]2O)c2nc(N)[nH]c(=O)c21 [m^7GpppG, m^7G(5′)ppp(5′)G]
- capped RNA [1]: 80%
